How the values were obtained:
[1] = test system: AAD1-transformed T0 ‘Crenshaw’ creeping bentgrass events (pDAB3878, pDAB5042); test: Quizalofop-p-ethyl postemergence on AAD1-transformed T0 Crenshaw creeping bentgrass, visual % injury; assay type: in vivo, Agrostis stolonifera L. var. palustris
Procedure: After molecular confirmation was utilized to identify transgenic events, a number of transgenic events were tested for herbicide tolerance. Specific isolated transgenic events were selected and maintained vegetatively through division of the crowns and replanting the clonal pieces into fresh growth medium. Clonally propagated plants were maintained by periodic “mowing” of vegetative tissues.
Growth medium was prepared by mixing Promix® and sand in a 2 to 1 ratio. The medium was contained in plastic pots with a surface area of 84.6 square centimeters (cm^2). When required to maintain plant health, a fungicide, insecticide, and/or other chemical or physical treatment was applied to stock plants. The plants were maintained in a greenhouse with an approximate 14 hour photoperiod which was maintained at 24-27° C. during the day and 22-25° C. during the night. Nutrients (Peters Excel® 15-5-15 5-Ca 2-Mg and iron chelate) were applied in the irrigation solution as needed, and water was added on a regular basis. Supplemental lighting was provided with overhead metal halide 1000-Watt lamps when photosynthetically active radiation (PAR) dropped below 500.
(§1) Selected T0 plants were sprayed with quizalofop-p-ethyl (Assure II®, DUPONT, Wilmington, Del.) at rates ranging from 60 to 2,240 g ae/ha. […] This rate also controls susceptible monocot weed species. Measured amounts were placed individually in 25 mL glass vials and dissolved in a 4 mL volume of 1.0% (v/v) Agri-Dex® Crop Oil Concentrate (COC) from HELENA CHEMICAL (Collierville, Tenn.). Application solutions were prepared by serial dilution of the highest rate applied. One-half the volume of the highest rate stock solution (2 mL) was transferred to a clean 25 mL vial containing an equal volume of 1% COC and the diluted solution was mixed. Additional dilutions were prepared similarly by removing one-half the volume of the previous concentration (2 mL), and adding to an equal volume of 1% COC and mixing. When preparing the lowest concentration, the remaining one-half volume was discarded. All 2 mL stock solutions were further diluted by adding 10 mL aqueous mixture of 1.0% (v/v) COC, so that the final spray solutions were 12 mL in volume and contained 1.0% (v/v) COC.
(§2) Spray solutions were applied to the plant material with an overhead Mandel™ track sprayer equipped with a 8002E nozzles calibrated to deliver 187 L/ha over an application area of 0.503 square meters (m^2) at a spray height of 18 inches (46 cm) above average plant canopy height. Control plants were sprayed in the same manner with the COC blank.
(§3) The treated plants and control plants were placed in a greenhouse, and watered by sub-irrigation to prevent wash-off of the test compounds. At various times after application, the condition of the test plants as compared with that of the untreated plants was determined visually and scored on a scale of 0 to 100 percent (where 0 corresponds to no injury or growth inhibition and 100 corresponds to complete kill). Regenerated, non-transformed (NT) ‘Crenshaw’ or elite line 2905-2 creeping bentgrass plants and/or seed-derived clonally propagated plants served as quizalofop sensitive controls.

[2] = test system: Kentucky bluegrass cv Shamrock callus; test: Callus selection conditions with quizalofop and haloxyfop: Kentucky bluegrass; assay type: cell-based
Procedure: (§4) Selection conditions for creeping bentgrass cv Crenshaw and Kentucky bluegrass cv Shamrock were established using the grass-active herbicides, quizalofop and haloxyfop. Concentrations of quizalofop and haloxyfop ranged from 0 to 300 nM dissolved in defined callus maintenance media for each species. Callus tissue, derived from mature seeds of each species or cultivar, was used in the experiment. In the case of creeping bentgrass cv Crenshaw, calli maintained on CBG-3 medium were transferred to plates of CBG-3 medium containing either haloxyfop or quizalofop at 0, 50, 100, 150, 200, 250, and 300 nM final concentrations. Visual observations (growth of callus and development of necrosis) were made over a period of 1.5 months. For Kentucky bluegrass cv Shamrock and experimental line A98, calli maintained on KBG-2 were transferred to plates of KBG-2 medium containing 0, 50, 100, 150, 200, 250, and 300 nM final concentrations of the herbicides. Visual observations of callus growth and necrosis were made over a 2.5 month period. […] The calli became necrotic at lower concentrations of quizalofop relative to haloxyfop and the response was more rapid. […]

[3] = test system: non-transformed (NT) and seed-derived (WT) creeping bentgrass; test: Quizalofop-p-ethyl postemergence on non-transformed / seed-derived creeping bentgrass controls; assay type: in vivo, Agrostis stolonifera L. var. palustris
Procedure: as §1, §2, §3

[4] = test system: Hi-II corn grown from seed; test: Lethal dose of AOPP herbicides on non-transformed Hi-II corn
[5] = test system: creeping bentgrass cv Crenshaw callus; test: Callus selection conditions with quizalofop and haloxyfop: creeping bentgrass; assay type: cell-based, Agrostis stolonifera
Procedure: as §4

In the case of `C[C@@H](Oc1ccc(Oc2cnc3cc(Cl)ccc3n2)cc1)C(=O)O` [quizalofop], the “mean injury, pDAB5042 Crenshaw events” value ([1]; 60, 120, 240 and 480 g ae/ha, 21 to 24 DAA) is reported as “less than 10%”, the “mean injury, pDAB3878 Crenshaw events” value ([1]; 120 g ae/ha, 11 DAA) is reported as “about 20%” and the “mean injury, pDAB3878 Crenshaw events” value ([1]; 120 g ae/ha, 14 DAA) is reported as “about 25%”. For the same molecule, the “mean injury, pDAB3878 Crenshaw events” value ([1]; 120 g ae/ha, 20 DAA) was “about 20%”, the “mean injury, pDAB3878 Crenshaw events” value ([1]; 480 g ae/ha, 11 DAA) was ~30% and the “mean injury, pDAB3878 Crenshaw events” value ([1]; 480 g ae/ha, 14 DAA) was ~30%. For the same molecule, the “mean injury, pDAB3878 Crenshaw events” value ([1]; 480 g ae/ha, 20 DAA) was “about 20%”, the “injury of individual pDAB5042 Crenshaw events” value ([1]; 480 g ae/ha, 21-24 DAA, all events except 204 and 227) was ≤ 20% and the “concentration needed to kill all calli” value [2] was 200 nM. The “injury of control, non-transgenic plants” value ([3]; 60 g ae/ha, 21 to 24 DAA) was “about 70%”, the “injury of control, non-transgenic plants” value ([3]; 120 and 480 g ae/ha, 11, 14, 20 DAA) was “about 80% injury to greater than 90% injury” and the “injury of control, non-transgenic plants” value ([3]; 120 g ae/ha, 21 to 24 DAA) was ~80%. The “injury of control, non-transgenic plants” value ([3]; 240 g ae/ha, 21 to 24 DAA) was ~90%, the “injury of control, non-transgenic plants” value ([3]; 480 g ae/ha, 21 to 24 DAA) was ~100% and the lethal dose ([4]; Assure II + 1% COC (v/v)) was 4.4 g ae/ha). For the same molecule, the “rate that effectively kills (>95% injury) three to four leaf Hi-II corn” value ([4]; postemergence, commercial formulations) was 4.4 g ae/ha and the “concentration sufficient to kill callus within six weeks” value [5] was 150 nM.

Reference: patent US10450549B2, “Aryloxyphenoxypropionate tolerance in turfrgass species and use of AAD1 as a selectable marker” (Dow AgroSciences, LLC, priority 2004, dated 2019)
